Converted amounts (≈) assume the structure as drawn.
Columns and labels:
[1] = tested on: E. cloacae A9656; test: Antibacterial activity, serial two-fold agar dilution; format: cell-based; details: Enterobacter cloacae, read-out: Minimum Inhibitory Concentration (MIC)
Procedure: (§1) The antibacterial activity of 4'-deschlororebeccamycin was determined against a number of gram-positive and gram-negative organisms by the serial two-fold agar dilution method. The results are shown in Table 5 below in comparison with the activity of rebeccamycin.

[2] = tested on: E. cloacae A9659; test: as above; format: cell-based; details: Enterobacter cloacae, read-out: Minimum Inhibitory Concentration (MIC)
Procedure: as §1

[3] = tested on: K. pneumoniae A20468; test: as above; format: cell-based; details: Klebsiella pneumoniae, read-out: Minimum Inhibitory Concentration (MIC)
Procedure: as §1

[4] = tested on: K. pneumoniae A9664; test: as above; format: cell-based; details: Klebsiella pneumoniae, read-out: Minimum Inhibitory Concentration (MIC)
Procedure: as §1

[5] = tested on: List. monocytogenes A15121; test: as above; format: cell-based; details: Listeria monocytogenes, read-out: Minimum Inhibitory Concentration (MIC)
Procedure: as §1

[6] = tested on: List. monocytogenes A20025; test: as above; format: cell-based; details: Listeria monocytogenes, read-out: Minimum Inhibitory Concentration (MIC)
Procedure: as §1

[7] = tested on: M. luteus A9547; test: as above; format: cell-based; details: Micrococcus luteus, read-out: Minimum Inhibitory Concentration (MIC)
Procedure: as §1

[8] = tested on: M. morganii A15153; test: as above; format: cell-based; details: Morganella morganii, read-out: Minimum Inhibitory Concentration (MIC)
Procedure: as §1

[9] = tested on: P. aeruginosa A21213; test: as above; format: cell-based; details: Pseudomonas aeruginosa, read-out: Minimum Inhibitory Concentration (MIC)
Procedure: as §1

[10] = tested on: P. aeruginosa A9843A; test: as above; format: cell-based; details: Pseudomonas aeruginosa, read-out: Minimum Inhibitory Concentration (MIC)
Procedure: as §1

[11] = tested on: P. mirabilis A9900; test: as above; format: cell-based; details: Proteus mirabilis, read-out: Minimum Inhibitory Concentration (MIC)
Procedure: as §1

[12] = tested on: P. rettgeri A22424; test: as above; format: cell-based; details: Providencia rettgeri, read-out: Minimum Inhibitory Concentration (MIC)
Procedure: as §1

[13] = tested on: P. vulgaris A21559; test: as above; format: cell-based; details: Proteus vulgaris, read-out: Minimum Inhibitory Concentration (MIC)
Procedure: as §1

[14] = tested on: S. aureus (Pen-Res) A9606; test: as above; format: cell-based; details: Staphylococcus aureus, read-out: Minimum Inhibitory Concentration (MIC)
Procedure: as §1

[15] = tested on: S. aureus A9537; test: as above; format: cell-based; details: Staphylococcus aureus, read-out: Minimum Inhibitory Concentration (MIC)
Procedure: as §1

[16] = tested on: S. coli A15119; test: as above; format: cell-based; details: read-out: Minimum Inhibitory Concentration (MIC)
Procedure: as §1

[17] = tested on: S. coli A20341-1; test: as above; format: cell-based; details: read-out: Minimum Inhibitory Concentration (MIC)
Procedure: as §1

[18] = tested on: S. faecalis A20688; test: as above; format: cell-based; details: Enterococcus faecalis, read-out: Minimum Inhibitory Concentration (MIC)
Procedure: as §1

[19] = tested on: S. marcescens A20019; test: as above; format: cell-based; details: Serratia marcescens, read-out: Minimum Inhibitory Concentration (MIC)
Procedure: as §1

[20] = tested on: S. pneumoniae A9585; test: as above; format: cell-based; details: Streptococcus pneumoniae, read-out: Minimum Inhibitory Concentration (MIC)
Procedure: as §1

[21] = tested on: S. pyogenes A9604; test: as above; format: cell-based; details: Streptococcus pyogenes, read-out: Minimum Inhibitory Concentration (MIC)
Procedure: as §1

[22] = tested on: P-388 leukemia; test: Effect on transplanted mouse leukemia P-388; format: in vivo, mouse (CDF1 F mice); details: IP, single injection day 1; for MST % T/C: >125 considered significant tumor inhibition; for Average weight change, day 5: control 0.6; for MST (median survival time): control 11.0
Procedure: 4'-Deschlororebeccamycin was also tested against the transplanted mouse leukemia P-388 and the results are shown below in Table 6. The methodology used generally followed the protocols of the National Cancer Institute [Cancer Chemotherapy Rep. Part 3, 3, 1-103 (1972)]. The essential experimental details are given at the bottom of Table 6.
Tumor inoculum: 10^6 ascites cells, ip
Treatment: Single injection on day 1 given i.p.
Evaluation: MST = median survival time
Effect: % T/C = (MST treated/MST control) × 100
Criteria: % T/C >125 considered significant tumor inhibition
Control: Saline (0.5 ml) given once daily i.p. for 5 days

[23] = Solubility; format: physicochemical
[24] = tested on: gram-positive and gram-negative organisms; test: Antimicrobial activity (general statement); format: cell-based
Procedure: as §1

Compound: COC1C(CO)OC(n2c3c(Cl)cccc3c3c4c(c5c6ccccc6[nH]c5c32)C(=O)NC4=O)C(O)C1O (stereo not drawn) [4'-Deschlororebeccamycin]
- MIC [1]: > 250 µg/mL
- MIC [2]: > 250 µg/mL
- MIC [3]: > 250 µg/mL
- MIC [4]: > 250 µg/mL
- MIC [5]: 32 µg/mL (≈ 59.7 µM)
- MIC [6]: 63 µg/mL (≈ 118 µM)
- MIC [7]: 1 µg/mL (≈ 1.87 µM)
- MIC [8]: > 250 µg/mL
- MIC [9]: > 250 µg/mL
- MIC [10]: > 250 µg/mL
- MIC [11]: > 250 µg/mL
- MIC [12]: > 250 µg/mL
- MIC [13]: > 250 µg/mL
- MIC [14]: > 250 µg/mL
- MIC [15]: 2 µg/mL (≈ 3.73 µM)
- MIC [16]: > 250 µg/mL
- MIC [17]: > 250 µg/mL
- MIC [18]: 16 µg/mL (≈ 29.9 µM)
- MIC [19]: > 250 µg/mL
- MIC [20]: 32 µg/mL (≈ 59.7 µM)
- MIC [21]: 32 µg/mL (≈ 59.7 µM)
- MST % T/C ([22]; 16 mg/kg/inj): 164%
- Average weight change, day 5 ([22]; 16 mg/kg/inj): -0.9 gm
- MST (median survival time) ([22]; 16 mg/kg/inj): 18.0 days
- MST % T/C ([22]; 32 mg/kg/inj): 141%
- Average weight change, day 5 ([22]; 32 mg/kg/inj): -0.8 gm
- MST (median survival time) ([22]; 32 mg/kg/inj): 15.5 days
- MST % T/C ([22]; 64 mg/kg/inj): 136%
- Average weight change, day 5 ([22]; 64 mg/kg/inj): -0.8 gm
- MST (median survival time) ([22]; 64 mg/kg/inj): 15.0 days
- MST % T/C ([22]; 128 mg/kg/inj): 159%
- Average weight change, day 5 ([22]; 128 mg/kg/inj): -0.6 gm
- MST (median survival time) ([22]; 128 mg/kg/inj): 17.5 days
- MST % T/C ([22]; 256 mg/kg/inj): 136%
- Average weight change, day 5 ([22]; 256 mg/kg/inj): -1.5 gm
- MST (median survival time) ([22]; 256 mg/kg/inj): 15.0 days
- MST % T/C ([22]; 512 mg/kg/inj): 141%
- Average weight change, day 5 ([22]; 512 mg/kg/inj): -1.0 gm
- MST (median survival time) ([22]; 512 mg/kg/inj): 15.5 days
- solubility in dimethylsulfoxide ([23]; dimethylsulfoxide): soluble
- solubility in water ([23]; water): insoluble
- antimicrobial activity [24]: exhibits antimicrobial activity

Compound: CO[C@H]1[C@H](O)[C@@H](O)[C@H](n2c3c(Cl)cccc3c3c4c(c5c6cccc(Cl)c6[nH]c5c32)C(=O)NC4=O)O[C@@H]1CO [Rebeccamycin]
- MIC [1]: > 250 µg/mL
- MIC [2]: > 250 µg/mL
- MIC [3]: > 250 µg/mL
- MIC [4]: > 250 µg/mL
- MIC [5]: 32 µg/mL (≈ 56.1 µM)
- MIC [6]: 32 µg/mL (≈ 56.1 µM)
- MIC [7]: 0.5 µg/mL (≈ 0.877 µM)
- MIC [8]: > 250 µg/mL
- MIC [9]: > 250 µg/mL
- MIC [10]: > 250 µg/mL
- MIC [11]: > 250 µg/mL
- MIC [12]: > 250 µg/mL
- MIC [13]: > 250 µg/mL
- MIC [14]: > 250 µg/mL
- MIC [15]: 0.5 µg/mL (≈ 0.877 µM)
- MIC [16]: > 250 µg/mL
- MIC [17]: > 250 µg/mL
- MIC [18]: 8 µg/mL (≈ 14 µM)
- MIC [19]: > 250 µg/mL
- MIC [20]: > 125 µg/mL
- MIC [21]: > 125 µg/mL
- MST % T/C ([22]; 16 mg/kg/inj): 136%
- Average weight change, day 5 ([22]; 16 mg/kg/inj): -0.8 gm
- MST (median survival time) ([22]; 16 mg/kg/inj): 15.0 days
- MST % T/C ([22]; 32 mg/kg/inj): 118%
- Average weight change, day 5 ([22]; 32 mg/kg/inj): -0.6 gm
- MST (median survival time) ([22]; 32 mg/kg/inj): 13.0 days
- MST % T/C ([22]; 64 mg/kg/inj): 136%
- Average weight change, day 5 ([22]; 64 mg/kg/inj): 0.3 gm
- MST (median survival time) ([22]; 64 mg/kg/inj): 15.0 days
- MST % T/C ([22]; 128 mg/kg/inj): 132%
- Average weight change, day 5 ([22]; 128 mg/kg/inj): 0.2 gm
- MST (median survival time) ([22]; 128 mg/kg/inj): 14.5 days
- MST % T/C ([22]; 256 mg/kg/inj): 136%
- Average weight change, day 5 ([22]; 256 mg/kg/inj): -0.3 gm
- MST (median survival time) ([22]; 256 mg/kg/inj): 15.0 days
- MST % T/C ([22]; 512 mg/kg/inj): 155%
- Average weight change, day 5 ([22]; 512 mg/kg/inj): -1.4 gm
- MST (median survival time) ([22]; 512 mg/kg/inj): 17.0 days

Source: patent US4567143A, “Process for preparing 4'-deschlororebeccamycin” (Bristol-Myers Company, priority 1985, dated 1986)
